Source: US20040147531A1, “Amidine derivatives for treating amyloidosis” (priority 2001, published 2004)

Columns and labels:
Set-up in all cases: key: “+” = active; “−” = inactive; “pr” = promoting
[1] = target: T1, Aβ (1-40) (Homo sapiens, UniProt P05067); assay: thioflavin T fluorescent assay (ThT assay) for fibrillogenesis; format: biochemical; conditions: Aβ (1-40) 20 μM, 5 μM Thioflavin T, pH 7.40, 37° C.; inhibition of fibrillogenesis
T1 construct: Aβ peptide: Aβ (1-40) 95% purity (American Peptide Company, Inc, Sunnyvale, Calif. USA); purchased American Peptide Company, Inc, Sunnyvale, Calif; USA
T1 sequence (P05067 672-711 limits assumed): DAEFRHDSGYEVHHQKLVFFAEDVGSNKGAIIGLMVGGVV
Text: Test compounds were purchased from commercial sources or synthesized and screened by thioflavin T fluorescent assay (“ThT assay”). Alternatively, one could screen test compounds by circular dichroism (“CD”), electron microscopy (“EM”), or mass spectroscopy (“MS”) assays. The MS assay gives data on the ability of compounds to bind to an amyloid protein, whereas the ThT, EM, and CD assays give data on inhibition of fibrillogenesis. The thioflavin T fluorescent assay for fibrillogenesis is based on the principle that the fluorescent dye, thioflavin T, binds specifically to fibrillar, but not to unaggregate Aβ peptide (LeVine III, H., 1993, Protein Science 2:404-410). Upon binding, thioflavin T develops a characteristic fluorescence (Naiki, H., et al., 1996, Lab. Invest. 74: 374-383) which can be easily detected. The dye is believed to interact with the stacked cross-β pleated sheets, the common structural motif of all amyloid (LeVine III, H., 1995, Amyloid: Int. J. Exp. Clin Invest. 2:1.6). Thioflavin T is widely used to assay the effect of compounds on fibrillogenesis of Aβ peptide and other amyloid proteins (Bronfman, P. C., et al., 1995, Neuroscience Lett. 218:201-203). In this assay, test compounds are incubated with a solution of Aβ (1-40) (20 μM) or IAPP (10 μM) containing 5 μM Thioflavin T, in 0.02M Tris/0.02M acetate/0.15M NaCl/0.005% azide/pH 7.40 at 37° C. in sealed 384 well microplates. Readings (ex 430 nm/em 485 nm) are taken at various time intervals with a microplate fluorescence reader. An increase in fluorescence signifies the appearance of amyloid or intermediates in the production of amyloid, as illustrated in the Figures (in general, a compound which inhibits fibrillogenesis produces lower fluorescence in the assay because the fluorescence of ThT is greater when bound to fibrils). Protocol: Aβ peptide: Aβ (1-40) 95% purity (American Peptide Company, Inc, Sunnyvale, Calif. USA) is disaggregated in trifluoroacetic acid and filtered through a […] filter, (Whatman Anotop 25 plus, 0.02 μm, Catalogue no. 6809 4102) in hexafluoroisopropanol (HFIP). Solutions of Aβ (1-40) or IAPP at 600 μm in HFIP are stored at −80° C. Assay mixture: The mixture is prepared as two solutions which are combined upon addition to the 384 well microplate (Corning Costar cat. 3705). i) Solution A consists of test compounds in 0.02M Tris/0.02M acetate/0.15M NaCl/0.01% azide at pH 7.40 or buffer alone (control), ii) Solution B consists of Aβ (1-40) 40 μM or IAPP 20 μM, Thioflavin T […] in 0.02M Tris/0.02M acetate/0.15M NaCl at pH 7.40. This solution is prepared by drying the Aβ peptide under nitrogen and then resuspending this in 0.04M Tris base with 15 minutes sonication. An equal volume of 0.04M acetic acid containing 0.3 M NaCl is added and the solution is adjusted to 7.40±0.02. A small volume of 20 mM Thioflavin T is added to the solution to give a final 5 μM concentration of Thioflavin T. iii) The microplate is loaded with 40 μL of solution A followed by 40 μL of solution B which gives a final 20 μM Aβ (1-40) or 10 μM IAPP, 5 μM Thioflavin T, and a given concentration of test compound in 0.02M Tris/0.02M acetate/0.15M NaCl/0.005% azide, pH 7.40. The plate is sealed and loaded into the microplate fluorescence reader. Fluorescence measurement data analysis: The HTS-7000 Bio Assay Reader, Perkin Elmer, is used to perform kinetic runs of about 1 day. Readings were taken at 15 minute intervals, with one minute shaking before each read. Bandpass filters used were: excitation 430 nm, emission […].

[2] = target: T2, Aβ40 (Homo sapiens, UniProt P05067); assay: mass spectroscopy (MS) assay, binding to Aβ; conditions: 200 μM test compound, 20 μM solubilized Aβ40, pH 7.4; ability to bind to Aβ
T2 construct: 200 μM of a test compound and 20 μM of solubilized Aβ40
T2 sequence (P05067 672-711 limits assumed): as above
Method: Test compounds were purchased from commercial sources or synthesized and screened by thioflavin T fluorescent assay (“ThT assay”). Alternatively, one could screen test compounds by circular dichroism (“CD”), electron microscopy (“EM”), or mass spectroscopy (“MS”) assays.
And in the mass spectroscopy (“MS”) assay, samples were prepared as aqueous solutions containing 20% ethanol, 200 μM of a test compound and 20 μM of solubilized Aβ40. The pH value of each sample was adjusted to 7.4 (±0.2) by addition of 0.1% aqueous sodium hydroxide. The solutions were then analyzed by electrospray ionization mass spectroscopy using a Waters ZQ 4000 mass spectrometer. Samples were introduced by direct infusion at a flow-rate of 25 μL/min within 2 hr. after sample preparation. The source temperature was kept at 70° C. and the cone voltage was 20 V for all the analysis. Data were processed using Masslynx 3.5 software.

[3] = target: T3, Aβ (Homo sapiens, UniProt P05067); assay: circular dichroism (CD) assay, inhibition of fibrillogenesis; format: biochemical; conditions: soluble Aβ, 37° C., 190-240 nm
T3 construct: Aβ peptide: Aβ (1-40) 95% purity (American Peptide Company, Inc, Sunnyvale, Calif. USA)
T3 sequence (P05067 672-711 limits assumed): as above
Text: (§1) Test compounds were purchased from commercial sources or synthesized and screened by thioflavin T fluorescent assay (“ThT assay”). Alternatively, one could screen test compounds by circular dichroism (“CD”), electron microscopy (“EM”), or mass spectroscopy (“MS”) assays. The MS assay gives data on the ability of compounds to bind to an amyloid protein, whereas the ThT, EM, and CD assays give data on inhibition of fibrillogenesis.
In the circular dichroism (“CD”) assay, samples were transferred to 0.1-cm path-length quartz cuvettes and CD scans were taken using a Jasco J-715 spectropolarimeter. Readings were taken at 37° C., between 190 and 240 nm, with a resolution of 0.1 nm and a bandwidth of 1 nm. […]

[4] = target: T3, Aβ; assay: electron microscopy (EM) assay, inhibition of fibrillogenesis; format: biochemical; conditions: soluble Aβ
Text: as §1
Similarly, in the electron microscopy (“EM”) assay, each sample was sonicated for 1 min to disrupt large clumps before testing. The sample (5-μL aliquot) was placed on freshly cleaved mica and allowed to air dry. The mica was placed in a Balzers High-vacuum, Freeze-Etch Unit (model 301), shadowed with platinum (30° angle), and coated with a carbon film. The replica was removed from the mica by flotation and transferred onto a 300-mesh copper grid. Samples were examined using a Joel 2000 FX transmission electron microscope. […]

Row | Structure (SMILES) | ThT Assay [1] | MS Assay [2] | CD [3] | EM [4]
1 | N=C(N)c1ccc(OCCCCOc2ccc(C(=N)N)cc2)cc1 [Compound 5] | + | + |  | 
2 | N=C(N)c1ccc(OCOc2ccc(C(=N)N)cc2)cc1 [Compound 9] | + | + | + | −
3 | N=C(N)c1ccc(OCc2cccc(COc3ccc(C(=N)N)cc3)c2)cc1 [Compound 24] | + | + |  | +
4 | c1cc(COc2ccc(C3=NCCN3)cc2)cc(COc2ccc(C3=NCCN3)cc2)c1 [Compound 25] | + |  |  | +
5 | N=C(N)c1ccc(OCc2ccc(COc3ccc(C(=N)N)cc3)cc2)cc1 [Compound 26] | + |  |  | −

Next, values leading:

Row | ThT Assay [1] | MS Assay [2] | CD [3] | EM [4] | Structure (SMILES)
6 | pr |  |  |  | c1cc(COc2ccc(C3=NCCN3)cc2)ccc1COc1ccc(C2=NCCN2)cc1 [Compound 27]
7 | + |  | + | + | N=C(N)c1ccc(-c2cc3ccc(C(=N)N)cc3[nH]2)cc1 [Compound 28]
8 | + | + |  | − | N=C(N)c1ccc(OCCC(O)COc2ccc(C(=N)N)cc2)cc1 (stereo not shown) [Compound 31]
9 | + | + |  | − | c1cc(C2=NCCN2)ccc1OCCOCCOc1ccc(C2=NCCN2)cc1 [Compound 35]
10 | + | + |  |  | N=C(N)CCCOc1ccc(C(=N)N)cc1 [Compound 41]
11 | − |  | − | − | Cl.N=C(N)c1ccccc1 [Compound 46]
12 |  | + | + | − | N=C(Nc1ccc(OCCCCCOc2ccc(NC(=N)c3ccccc3)cc2)cc1)c1ccccc1 [Compound 134]
